Experimental data from patent EP0336446A1, “Gene and gene product for the production of beta-lactam-compounds” (BIOCHEMIE GESELLSCHAFT M.B.H., priority 1988, dated 1989).
Values joined by “and” are separate entries in the source; they are usually repeats but may differ in a detail not shown here. Identical values can stand only once.

What was measured:
[1] = test system: Micrococcus luteus ATCC 9341/BC 85; assay: Agar diffusion test of penicillin standards (inhibition zone diameter); assay type: cell-based
PAT [2] = molecular target: T1, PAT (Penicillium chrysogenum, UniProt P15802); assay: Microbiological agar diffusion test (Micrococcus luteus ATCC 9341/BC 85) of transacylation of Isopenicillin N with PaCoA by enzyme preparation AS-Präzipitat; assay type: biochemical, Penicillium chrysogenum P2/ATCC 48271
Procedure: (§1) Die, wie in Beispiel 2 beschrieben, hergestellte Enzymrohpräzipitation wird im mikrobiologischen Agardiffusionstest hinsichtlich Transacylierung von 6-APA bzw. Isopenicillin N mit PaCoA und Spaltung von Kalium Penicillin V mit bzw. ohne Inhibitorzusatz folgendermaßen getestet: Testkeim: Micrococcus luteus ATCC 9341/BC 85, 0,5% Einsaat Testmedium: Antibiotic Medium 1 (DIFCO), 110 ml Testplatte: Nunc 243x243x18 mm Probe: 50 µl pro Näpfchen (6 mm Durchmesser) Inkubation: 37°, 15 Stunden Enzym: AS-Präzipitat (hergestellt wie in Beispiel 2 beschrieben): 1 ml zentrifugiert (20.000 Upm/10 min), Überstand verworfen, Pellet in 20 ml RP + Z resuspendiert. RP + Z: 0,1 M Phosphatpuffer pH 7,5 + 1 mM DTT + 10 mM MgCl₂
Sofort bzw. nach 7, 30 und 60 Minuten Inkubationszeit werden 20 µl Aliquots der Ansätze entnommen, 1:5 mit 50% Ethanol (Stoppen der Enzymreaktion) verdünnt und im Agardiffusionstest auf Penicillingehalt getestet.

PAT [3] = molecular target: T1, PAT; assay: Substrate specificity of purified PAT (fraction AL 278/2), specific enzyme activity by HPLC; assay type: biochemical, Penicillium chrysogenum P2/ATCC 48271
PAT [4] = molecular target: T1, PAT; assay: Penicillin V cleavage by AS-Präzipitat, residual penicillin by agar diffusion test; assay type: biochemical, Penicillium chrysogenum P2/ATCC 48271
Procedure: as §1

[5] = labelled substance = Acylakzeptor, Acyldonator PaCoA
[6] = labelled substance = Acylakzeptor, Acyldonator PeCoA
[7] = labelled substance = Acyldonator, Acylakzeptor H₂O, Produkt 6-APA

T1 sequence (P15802 103-357 limits assumed): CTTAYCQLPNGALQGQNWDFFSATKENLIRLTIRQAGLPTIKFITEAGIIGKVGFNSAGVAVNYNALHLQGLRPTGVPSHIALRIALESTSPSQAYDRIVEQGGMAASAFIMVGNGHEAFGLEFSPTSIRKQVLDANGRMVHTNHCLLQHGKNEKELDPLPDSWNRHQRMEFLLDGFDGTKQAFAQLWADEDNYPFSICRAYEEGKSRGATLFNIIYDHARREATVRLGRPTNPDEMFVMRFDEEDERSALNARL
T1 sequence (P15802 1-102 limits assumed): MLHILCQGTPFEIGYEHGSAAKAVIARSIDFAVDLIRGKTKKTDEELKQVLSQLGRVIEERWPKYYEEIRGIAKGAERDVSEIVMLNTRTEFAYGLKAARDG

CC1(C)S[C@@H]2[C@H](NC(=O)CCC[C@H](N)C(=O)O)C(=O)N2[C@H]1C(=O)O [Isopenicillin N Nr. 28, Isopenicillin N]
zone of inhibition at 12.5 µg/mL ([1]; Micrococcus luteus, ATCC9341, 15 h, read-out: HH ⌀ mm, Isopenicillin N Std. 12.5 µg/ml): 12.4 mm
zone of inhibition at 25 µg/mL ([1]; Micrococcus luteus, ATCC9341, 15 h, read-out: HH ⌀ mm, Isopenicillin N Std. 25 µg/ml): 16.5 mm
zone of inhibition at 50 µg/mL ([1]; Micrococcus luteus, ATCC9341, 15 h, read-out: HH ⌀ mm, Isopenicillin N Std. 50 µg/ml): 20 mm
Transacylierung von Isopenicillin N (#28 u 36) mit PaCoA (HH ⌀ mm) (PAT [2]; a) ohne Inhibitor, 7′, listed as Nr. 28): 25.5 mm
Transacylierung von Isopenicillin N (#28 u 36) mit PaCoA (HH ⌀ mm) (PAT [2]; a) ohne Inhibitor, 30′, listed as Nr. 28): 26.0 mm
Transacylierung von Isopenicillin N (#28 u 36) mit PaCoA (HH ⌀ mm) (PAT [2]; a) ohne Inhibitor, 60′, listed as Nr. 28): 23.0 mm
Transacylierung von Isopenicillin N (#28 u 36) mit PaCoA (HH ⌀ mm) (PAT [2]; a) ohne Inhibitor, s (sofort), listed as Nr. 28): 22.5 mm
Transacylierung von Isopenicillin N (#28 u 36) mit PaCoA (HH ⌀ mm) (PAT [2]; b) 2 mM Jodacetamid, 7′, listed as Nr. 28): 20.8 mm
Transacylierung von Isopenicillin N (#28 u 36) mit PaCoA (HH ⌀ mm) (PAT [2]; b) 2 mM Jodacetamid, 30′, listed as Nr. 28): 18.3 mm
Transacylierung von Isopenicillin N (#28 u 36) mit PaCoA (HH ⌀ mm) (PAT [2]; b) 2 mM Jodacetamid, 60′, listed as Nr. 28): 14.7 mm
Transacylierung von Isopenicillin N (#28 u 36) mit PaCoA (HH ⌀ mm) (PAT [2]; b) 2 mM Jodacetamid, s (sofort), listed as Nr. 28): 21.1 mm
Transacylierung von Isopenicillin N (#28 u 36) mit PaCoA (HH ⌀ mm) (PAT [2]; c) 2 mM PMSF, 7′, listed as Nr. 28): 24.7 mm
Transacylierung von Isopenicillin N (#28 u 36) mit PaCoA (HH ⌀ mm) (PAT [2]; c) 2 mM PMSF, 30′, listed as Nr. 28): 25.7 mm
Transacylierung von Isopenicillin N (#28 u 36) mit PaCoA (HH ⌀ mm) (PAT [2]; c) 2 mM PMSF, 60′, listed as Nr. 28): 20.7 mm
Transacylierung von Isopenicillin N (#28 u 36) mit PaCoA (HH ⌀ mm) (PAT [2]; c) 2 mM PMSF, s (sofort), listed as Nr. 28): 22.7 mm

CC1(C)S[C@@H]2[C@H](NC(=O)CCC[C@H](N)C(=O)O)C(=O)N2[C@H]1C(=O)O [Isopenicillin N Nr. 36, Isopenicillin N]
HH ⌀ mm ([1]; Isopenicillin N Std. 12.5 µg/ml): 18.4 mm
HH ⌀ mm ([1]; Isopenicillin N Std. 25 µg/ml): 22.1 mm
HH ⌀ mm ([1]; Isopenicillin N Std. 50 µg/ml): 24.5 mm
Transacylierung von Isopenicillin N (#28 u 36) mit PaCoA (HH ⌀ mm) (PAT [2]; a) ohne Inhibitor, 7′, listed as Nr. 36): 28.3 mm
Transacylierung von Isopenicillin N (#28 u 36) mit PaCoA (HH ⌀ mm) (PAT [2]; a) ohne Inhibitor, 30′, listed as Nr. 36): 30.8 mm
Transacylierung von Isopenicillin N (#28 u 36) mit PaCoA (HH ⌀ mm) (PAT [2]; a) ohne Inhibitor, 60′, listed as Nr. 36): 28.7 mm
Transacylierung von Isopenicillin N (#28 u 36) mit PaCoA (HH ⌀ mm) (PAT [2]; a) ohne Inhibitor, s (sofort), listed as Nr. 36): 27.0 mm
Transacylierung von Isopenicillin N (#28 u 36) mit PaCoA (HH ⌀ mm) (PAT [2]; b) 2 mM Jodacetamid, 7′, listed as Nr. 36): 25.0 mm
Transacylierung von Isopenicillin N (#28 u 36) mit PaCoA (HH ⌀ mm) (PAT [2]; b) 2 mM Jodacetamid, 30′, listed as Nr. 36): 23.6 mm
Transacylierung von Isopenicillin N (#28 u 36) mit PaCoA (HH ⌀ mm) (PAT [2]; b) 2 mM Jodacetamid, 60′, listed as Nr. 36): 22.1 mm
Transacylierung von Isopenicillin N (#28 u 36) mit PaCoA (HH ⌀ mm) (PAT [2]; b) 2 mM Jodacetamid, s (sofort), listed as Nr. 36): 25.2 mm
Transacylierung von Isopenicillin N (#28 u 36) mit PaCoA (HH ⌀ mm) (PAT [2]; c) 2 mM PMSF, 7′, listed as Nr. 36): 27.2 mm
Transacylierung von Isopenicillin N (#28 u 36) mit PaCoA (HH ⌀ mm) (PAT [2]; c) 2 mM PMSF, 30′, listed as Nr. 36): 27.7 mm
Transacylierung von Isopenicillin N (#28 u 36) mit PaCoA (HH ⌀ mm) (PAT [2]; c) 2 mM PMSF, 60′, listed as Nr. 36): 26.7 mm
Transacylierung von Isopenicillin N (#28 u 36) mit PaCoA (HH ⌀ mm) (PAT [2]; c) 2 mM PMSF, s (sofort), listed as Nr. 36): 26.3 mm

CC1(C)S[C@@H]2[C@H](NC(=O)CCC[C@H](N)C(=O)O)C(=O)N2[C@H]1C(=O)O [Isopenicillin N]
mittels HPLC bestimmte spezifische Enzymaktivität (mU/mg Protein) A1 278/2 (PAT [3]; [5]): 146 mU/mg Protein
mittels HPLC bestimmte spezifische Enzymaktivität (mU/mg Protein) A1 278/2 (PAT [3]; [6]): 80 mU/mg Protein
mittels HPLC bestimmte spezifische Enzymaktivität (mU/mg Protein) A1 278/2 (PAT [3]; [7]): 150 mU/mg Protein

CC1(C)S[C@@H]2[C@H](NC(=O)COc3ccccc3)C(=O)N2[C@H]1C(=O)O [Kalium Penicillin V]
Spaltung von Kalium Penicillin V (HH ⌀ mm) (PAT [4]; a) ohne Inhibitor, 7′): 21.8 mm
Spaltung von Kalium Penicillin V (HH ⌀ mm) (PAT [4]; a) ohne Inhibitor, 30′): 0 mm
Spaltung von Kalium Penicillin V (HH ⌀ mm) (PAT [4]; a) ohne Inhibitor, 60′): 0 mm
Spaltung von Kalium Penicillin V (HH ⌀ mm) (PAT [4]; a) ohne Inhibitor, s): 25.7 mm
Spaltung von Kalium Penicillin V (HH ⌀ mm) (PAT [4]; b) + 2 mM Jodacetamid, 7′): 23.1 mm
Spaltung von Kalium Penicillin V (HH ⌀ mm) (PAT [4]; b) + 2 mM Jodacetamid, 30′): 0 mm
Spaltung von Kalium Penicillin V (HH ⌀ mm) (PAT [4]; b) + 2 mM Jodacetamid, 60′): 0 mm
Spaltung von Kalium Penicillin V (HH ⌀ mm) (PAT [4]; b) + 2 mM Jodacetamid, s): 25.7 mm
Spaltung von Kalium Penicillin V (HH ⌀ mm) (PAT [4]; c) + 2 mM Ethylmaleinimid, 7′): 23.0 mm
Spaltung von Kalium Penicillin V (HH ⌀ mm) (PAT [4]; c) + 2 mM Ethylmaleinimid, 30′): 0 mm
Spaltung von Kalium Penicillin V (HH ⌀ mm) (PAT [4]; c) + 2 mM Ethylmaleinimid, 60′): 0 mm
Spaltung von Kalium Penicillin V (HH ⌀ mm) (PAT [4]; c) + 2 mM Ethylmaleinimid, s): 25.0 mm
Spaltung von Kalium Penicillin V (HH ⌀ mm) (PAT [4]; d) + 2 mM PMSF, 7′): 0 mm
Spaltung von Kalium Penicillin V (HH ⌀ mm) (PAT [4]; d) + 2 mM PMSF, 30′): 0 mm
Spaltung von Kalium Penicillin V (HH ⌀ mm) (PAT [4]; d) + 2 mM PMSF, 60′): 0 mm
Spaltung von Kalium Penicillin V (HH ⌀ mm) (PAT [4]; d) + 2 mM PMSF, s): 25.3 mm
HH ⌀ mm ([1]; Penicillin V Std. 0.25 µg/ml): 11.9 mm
HH ⌀ mm ([1]; Penicillin V Std. 0.5 µg/ml): 18.4 mm
HH ⌀ mm ([1]; Penicillin V Std. 1.0 µg/ml): 23.4 mm
HH ⌀ mm ([1]; Penicillin V Std. 1.5 µg/ml): 24.7 mm
HH ⌀ mm ([1]; Penicillin V Std. 2.0 µg/ml): 27.4 mm

CC1(C)S[C@@H]2[C@H](NC(=O)Cc3ccccc3)C(=O)N2[C@H]1C(=O)O [Penicillin G]
mittels HPLC bestimmte spezifische Enzymaktivität (mU/mg Protein) A1 278/2 (PAT [3]; [5]): 25 mU/mg Protein
mittels HPLC bestimmte spezifische Enzymaktivität (mU/mg Protein) A1 278/2 (PAT [3]; [7]): 17 mU/mg Protein

CC1(C)S[C@@H]2[C@H](NC(=O)COc3ccccc3)C(=O)N2[C@H]1C(=O)O [Penicillin V]
mittels HPLC bestimmte spezifische Enzymaktivität (mU/mg Protein) A1 278/2 (PAT [3]; [6]): 99 mU/mg Protein
mittels HPLC bestimmte spezifische Enzymaktivität (mU/mg Protein) A1 278/2 (PAT [3]; [7]): 75 mU/mg Protein
zone of inhibition at 0.25 µg/mL ([1]; Micrococcus luteus, ATCC9341, 15 h, Penicillin V Std. 0.25 µg/ml, read-out: HH ⌀ mm): 9.7 mm
zone of inhibition at 0.5 µg/mL ([1]; Micrococcus luteus, ATCC9341, 15 h, Penicillin V Std. 0.5 µg/ml, read-out: HH ⌀ mm): 17.6 mm
zone of inhibition at 1 µg/mL ([1]; Micrococcus luteus, ATCC9341, 15 h, Penicillin V Std. 1.0 µg/ml, read-out: HH ⌀ mm): 21.7 mm
zone of inhibition at 1.5 µg/mL ([1]; Micrococcus luteus, ATCC9341, 15 h, Penicillin V Std. 1.5 µg/ml, read-out: HH ⌀ mm): 24 mm
zone of inhibition at 2 µg/mL ([1]; Micrococcus luteus, ATCC9341, 15 h, Penicillin V Std. 2.0 µg/ml, read-out: HH ⌀ mm): 25.3 mm
HH ⌀ mm ([1]; Penicillin V Std. 0.25 µg/ml): 11.9 mm
HH ⌀ mm ([1]; Penicillin V Std. 0.5 µg/ml): 17.8 mm and 18.4 mm
HH ⌀ mm ([1]; Penicillin V Std. 1.0 µg/ml): 23.4 mm
HH ⌀ mm ([1]; Penicillin V Std. 1.5 µg/ml): 24.7 mm
HH ⌀ mm ([1]; Penicillin V Std. 2.0 µg/ml): 27.4 mm

Penicillin
antibakterielle Sensitivität gegenüber Penicillin als gegenüber 6-APA ([1]; Micrococcus luteus ATCC 9341, relative to 6-APA): mehr als drei Zehnerpotenzen
